Like-named read-outs stand apart in the source and are kept apart here.
Tests used:
[1] = tested on: HCV genotype 1b (Con1) replicon in HUH-7 cells; assay: HCV replicon luciferase reporter assay, genotype 1b; type: cell-based; settings: Hepatitis C virus, Huh-7, 72 h, 3 days incubation
In short: (§1)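 Replicon inhibition for both genotypes was measured as Renilla luciferase signal (EnduRen, 7.5 μM final, 2 h) after 3-day, 37° C exposure of replicon-bearing HUH-7 cells in 4% FCS DMEM, 0.5% DMSO. The 1b construct carries S1179I; the 1a H77 construct carries P1496L and S2204I. Twenty-point, 3-fold dilutions were fitted four-parametrically for EC50, and CC50 was taken from multiplexed Cell Titer-Blue.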

[2] = tested on: HCV genotype 1a (H77 strain) replicon in HUH-7 cells; assay: HCV replicon luciferase reporter assay, genotype 1a; type: cell-based; settings: Hepatitis C virus, Huh-7, 72 h, 3 days incubation
In short: as §1

[3] = HCV genotype 1b replicon luciferase, read-out: LE_1b (EC50, range)
[4] = HCV genotype 1a replicon luciferase, read-out: LE_1a (EC50, range)
[5] = HCV genotype 1b replicon luciferase assay, range class, read-out: LE_1b (EC50, range)
[6] = HCV genotype 1a replicon luciferase assay, range class, read-out: LE_1a (EC50, range)

| Structure (SMILES) | EC50 [1, 3] | EC50 [2, 4] | EC50 [1, 5] | EC50 [2, 6] | also measured |
| --- | --- | --- | --- | --- | --- |
| COc1cc2ccnc(O[C@@H]3C[C@H]4C(=O)N[C@]5(C(=O)NS(=O)(=O)C6(CF)CC6)C[C@H]5/C=C\CC[C@@H](C)C[C@@H](C)[C@H](NC(=O)OC(C)(C)C)C(=O)N4C3)c2cc1OC [Compound 5385, tert-butyl ((2R,6S,7R,9R,13aS,14aR,16aS,Z)-2-((6,7-dimethoxyisoquinolin-1-yl)oxy)-14a-(((1-(fluoromethyl)cyclopropyl)sulfonyl)carbamoyl)-7,9-dimethyl-5,16-dioxo-1,2,3,5,6,7,8,9,10,11,13a,14,14a,15,16,16a-hexadecahydrocyclopropa[e]pyrrolo[1,2-a][1,4]diazacyclopentadecin-6-yl)carbamate] | 1.01 to 5 nM | 5.01 to 35 nM | – | – | – |
| CCOc1ccc2nc(C(F)(F)F)c(O[C@@H]3C[C@H]4C(=O)N[C@]5(C(=O)NS(=O)(=O)C6(C)CC6)C[C@H]5/C=C\CC[C@@H](C)C[C@@H](C)[C@H](NC(=O)OC(C)(C)C)C(=O)N4C3)nc2c1 [Compound 4346, tert-butyl ((2R,6S,7R,9R,13aS,14aR,16aS,Z)-2-((7-ethoxy-3-(trifluoromethyl)quinoxalin-2-yl)oxy)-7,9-dimethyl-14a-(((1-methylcyclopropyl)sulfonyl)carbamoyl)-5,16-dioxo-1,2,3,5,6,7,8,9,10,11,13a,14,14a,15,16,16a-hexadecahydrocyclopropa[e]pyrrolo[1,2-a][1,4]diazacyclopentadecin-6-yl)carbamate] | 0.1 to 0.5 nM | 0.51 to 1 nM | – | – | – |
| COc1ccc2c(O[C@@H]3C[C@H]4C(=O)N[C@]5(C(=O)NS(=O)(=O)C6(CF)CC6)C[C@H]5/C=C\CC[C@H](C)C[C@@H](C)[C@H](NC(=O)OC(C)(C)C(F)(F)F)C(=O)N4C3)nc(Cl)cc2c1 [Compound 1164, 1,1,1-trifluoro-2-methylpropan-2-yl((2R,6S,7R,9S,13aS,14aR,16aS,Z)-2-((3-chloro-6-methoxyisoquinolin-1-yl)oxy)-14a-(((1-(fluoromethyl)cyclopropyl)sulfonyl)carbamoyl)-7,9-dimethyl-5,16-dioxo-1,2,3,5,6,7,8,9,10,11,13a,14,14a,15,16,16a-hexadecahydrocyclopropa[e]pyrrolo[1,2-a][1,4]diazacyclopentadecin-6-yl)carbamate] | – | – | 4.82 to 103 nM | 4.82 to 103 nM | – |
| CCCOc1cc2c(Cl)cccc2c(O[C@@H]2C[C@H]3C(=O)N[C@]4(C(=O)NS(=O)(=O)C5CC5)C[C@H]4/C=C\CC[C@@H](C)C[C@@H](C)[C@H](NC(=O)O[C@H](C)C(F)(F)F)C(=O)N3C2)n1 [Compound 1082, (R)-1,1,1-trifluoropropan-2-yl ((2R,6S,7R,9R,13aS,14aR,16aS,Z)-2-((5-chloro-3-propoxyisoquinolin-1-yl)oxy)-14a-((cyclopropylsulfonyl)carbamoyl)-7,9-dimethyl-5,16-dioxo-1,2,3,5,6,7,8,9,10,11,13a,14,14a,15,16,16a-hexadecahydrocyclopropa[e]pyrrolo[1,2-a][1,4]diazacyclopentadecin-6-yl)carbamate] | – | – | < 5.46 nM | < 5.46 nM | – |
| CC[C@@H]1C[C@H](C)CC/C=C\[C@@H]2C[C@@]2(C(=O)NS(=O)(=O)C2(C)CC2)NC(=O)[C@@H]2C[C@@H](Oc3nc4cc(OC(C)C)ccc4nc3C(F)(F)F)CN2C(=O)[C@H]1NC(=O)OC(C)(C)C(F)(F)F [Compound 4350] | – | – | – | – | EC50 ([1]; GETYPE1B, HCV genotype 1b replicon luciferase, read-out: LE_1b (EC50)): 0.88 nM; EC50 ([1]; GETYPE1B, HCV genotype 1b replicon luciferase, read-out: LE_1b (EC50, range)): 0.51 to 1 nM; EC50 ([2]; GETYPE1A, HCV genotype 1a replicon luciferase, read-out: LE_1a (EC50)): 1.49 nM; EC50 ([2]; GETYPE1A, HCV genotype 1a replicon luciferase, read-out: LE_1a (EC50, range)): 1.01 to 5 nM |
| COc1cnc(O[C@@H]2C[C@H]3C(=O)N[C@]4(C(=O)NS(=O)(=O)C5(CF)CC5)C[C@H]4/C=C\CC[C@@H](C)C[C@@H](C)[C@H](NC(=O)OC(C)(C)C)C(=O)N3C2)c2ccc(F)cc12 [Compound 3146, tert-butyl ((2R,6S,7R,9R,13aS,14aR,16aS,Z)-2-((6-fluoro-4-methoxyisoquinolin-1-yl)oxy)-14a-(((1-(fluoromethyl)cyclopropyl)sulfonyl)carbamoyl)-7,9-dimethyl-5,16-dioxo-1,2,3,5,6,7,8,9,10,11,13a,14,14a,15,16,16a-hexadecahydrocyclopropa[e]pyrrolo[1,2-a][1,4]diazacyclopentadecin-6-yl)carbamate] | – | – | < 5.46 nM | < 5.46 nM | – |
| CCOc1cnc(O[C@@H]2C[C@H]3C(=O)N[C@]4(C(=O)NS(=O)(=O)C5(C)CC5)C[C@H]4/C=C\CC[C@@H](C)C[C@@H](C)[C@H](NC(=O)OC(C)(C)C)C(=O)N3C2)c2ccc(OC)cc12 [Compound 4136, tert-butyl (2R,6S,7R,9R,13aS,14aR,16aS,Z)-2-(4-ethoxy-6-methoxyisoquinolin-1-yloxy)-7,9-dimethyl-14a-(1-methylcyclopropylsulfonylcarbamoyl)-5,16-dioxo-1,2,3,5,6,7,8,9,10,11,13a,14,14a,15,16,16a-hexadecahydrocyclopropa[e]pyrrolo[1,2-a][1,4]diazacyclopentadecin-6-ylcarbamate] | < 5.46 nM | < 5.46 nM | – | – | – |
| CC[C@@H]1C[C@H](C)CC/C=C\[C@@H]2C[C@@]2(C(=O)NS(=O)(=O)C2(C)CC2)NC(=O)[C@@H]2C[C@@H](Oc3ncc(C(=O)O)c4cc(OC)ccc34)CN2C(=O)[C@H]1NC(=O)OC(C)(C)C(F)(F)F [Compound 4276, 1-(((2R,6S,7R,9R,13aS,14aR,16aS,Z)-7-ethyl-9-methyl-14a-(((1-methylcyclopropyl)sulfonyl)carbamoyl)-5,16-dioxo-6-((((1,1,1-trifluoro-2-methylpropan-2-yl)oxy)carbonyl)amino)-1,2,3,5,6,7,8,9,10,11,13a,14,14a,15,16,16a-hexadecahydrocyclopropa[e]pyrrolo[1,2-a][1,4]diazacyclopentadecin-2-yl)oxy)-6-methoxyisoquinoline-4-carboxylic acid] | 35 to 620 nM | 35 to 620 nM | – | – | – |
| CC[C@@H]1C[C@H](C)CC/C=C\[C@@H]2C[C@@]2(C(=O)NS(=O)(=O)C2(C)CC2)NC(=O)[C@@H]2C[C@@H](Oc3ncc(C(=O)O)c4cc(OC)ccc34)CN2C(=O)[C@H]1NC(=O)OC(C)(C)C [Compound 4277, 1-(((2R,6S,7R,9R,13aS,14aR,16aS,Z)-6-((tert-butoxycarbonyl)amino)-7-ethyl-9-methyl-14a-(((1-methylcyclopropyl)sulfonyl)carbamoyl)-5,16-dioxo-1,2,3,5,6,7,8,9,10,11,13a,14,14a,15,16,16a-hexadecahydrocyclopropa[e]pyrrolo[1,2-a][1,4]diazacyclopentadecin-2-yl)oxy)-6-methoxyisoquinoline-4-carboxylic acid] | 35 to 620 nM | 35 to 620 nM | – | – | EC50 ([1]; HCV genotype 1b replicon luciferase, read-out: LE_1b (EC50)): 218 nM; EC50 ([2]; HCV genotype 1a replicon luciferase, read-out: LE_1a (EC50)): ≥ 1000 nM |
| CC(C)Oc1ccc2c(O[C@@H]3C[C@H]4C(=O)N[C@]5(C(=O)NS(=O)(=O)C6(C)CC6)C[C@H]5/C=C\CC[C@@H](C)C[C@@H](C)[C@H](NC(=O)O[C@@H]5C[C@@H]6C[C@@H]6C5)C(=O)N4C3)nccc2c1 [Compound 5163, (1R,3r,5S)-bicyclo[3.1.0]hexan-3-yl((2R,6S,7R,9R,13aS,14aR,16aS,Z)-2-((6-isopropoxyisoquinolin-1-yl)oxy)-7,9-dimethyl-14a-(((1-methylcyclopropyl)sulfonyl)carbamoyl)-5,16-dioxo-1,2,3,5,6,7,8,9,10,11,13a,14,14a,15,16,16a-hexadecahydrocyclopropa[e]pyrrolo[1,2-a][1,4]diazacyclopentadecin-6-yl)carbamate] | < 5.46 nM | < 5.46 nM | – | – | – |
| COCCn1nc(O[C@@H]2C[C@H]3C(=O)N[C@]4(C(=O)NS(=O)(=O)C5(C)CC5)C[C@H]4/C=C\CC[C@H](C)C[C@@H](C)[C@H](NC(=O)OC(C)(C)C)C(=O)N3C2)c2ccccc2c1=O [Compound 1005, tert-butyl ((2R,6S,7R,9S,13aS,14aR,16aS,Z)-2-((3-(2-methoxyethyl)-4-oxo-3,4-dihydrophthalazin-1-yl)oxy)-7,9-dimethyl-14a-(((1-methylcyclopropyl)sulfonyl)carbamoyl)-5,16-dioxo-1,2,3,5,6,7,8,9,10,11,13a,14,14a,15,16,16a-hexadecahydrocyclopropa[e]pyrrolo[1,2-a][1,4]diazacyclopentadecin-6-yl)carbamate] | – | – | > 87.4 nM | > 87.4 nM | – |
| COc1cc2ccccc2c(O[C@@H]2C[C@H]3C(=O)N[C@]4(C(=O)NS(=O)(=O)C5CC5)C[C@H]4/C=C\CC[C@@H](C)C[C@@H](C)[C@H](NC(=O)OC(C)(C)C(F)(F)F)C(=O)N3C2)n1 [Compound 6018, 1,1,1-trifluoro-2-methylpropan-2-yl((2R,6S,7R,9R,13aS,14aR,16aS,Z)-14a-((cyclopropylsulfonyl)carbamoyl)-2-((3-methoxyisoquinolin-1-yl)oxy)-7,9-dimethyl-5,16-dioxo-1,2,3,5,6,7,8,9,10,11,13a,14,14a,15,16,16a-hexadecahydrocyclopropa[e]pyrrolo[1,2-a][1,4]diazacyclopentadecin-6-yl)carbamate] | < 5.46 nM | < 5.46 nM | – | – | – |

Reference: patent US9499550B2 (BRISTOL-MYERS SQUIBB COMPANY, priority 2012, dated 2016)
